Laboratory results as given in US20120220488A1, “HEART AGING BIOMARKERS AND METHODS OF USE” (priority 2009, published 2012).

Experiments:
Type in all cases: in vivo
[1] = tested on: Akt1; assay: Microarray gene expression in heart tissue, Study 2; details: Study 2, mouse heart tissue, old (30) + Resveratrol vs old; probe 1425711_a_at
Text: (§1) Two public rodent cardiac aging gene expression data sets were selected from the NCBI's Gene Expression Omnibus (GEO): (1) The University of Washington's rat study (UW) (Linford J L et al. (2007) Transcriptional Response to Aging and Calorie Restriction in Heart and Adipose Tissue. Aging Cell 6: 673-688)) (Study 1); and (2) LifeGen's mouse study (Barger J L et al. (2008) A Low Dose of Dietary Resveratrol partially Mimics Calorie Restriction and Retards Aging Parameters in Mice. PLoS ONE 3(6): 1-10) (Study 2). Materials and methods for the two studies are shown in the references. A third data set came from an unpublished mouse cardiac aging study. In that study, mice were divided into two groups (n=7) and were fed with control diet according to the proceedings in the Barger study. Mice were sacrificed at the ages of 5 months (young group) and 25 months (old group). Heart tissues were collected and subject to microarray gene expression assays (Study 3). In Study 2 and Study 3, Affymetrix mouse genome 430 2.0 gene chips were used. In Study 1, Affymetrix rat genome 230 2.0 gene chips were used. A description of the three studies is outlined in Table 1.
(§2) Data were first inspected for quality and examined for possible outliers. Three samples, one from each Study, were identified as outliers and were removed from further analysis. Differential genes were identified between young and old groups in each Study using Significance Analysis of Microarrays (SAM) algorithm (Tusher, Tibshirani and Chu (2001) Significance analysis of microarrays applied to the ionizing radiation response. PNAS 2001 98: 5116-5121). The selection criteria include magnitude of expression change (fold>=1.2) and false discovery rate (FDR<0.5%).
(§3) Genes in the Wnt pathway were further examined for their expressional changes. […] Those genes/proteins are listed in Table 2, along with respective representative GenBank Accession Numbers, and the Study 2 results are shown in Table 3. The expression of these genes was also examined in the calorie restricted (CR) group and resveratrol (“Resv”) group.

[2] = tested on: Dlgh1; assay: as above; details: Study 2, mouse heart tissue, old (30) + Resveratrol vs old; probe 1450768_at
Text: as §1, §2, §3

[3] = tested on: Mapk1; assay: as above; details: Study 2, mouse heart tissue, old (30) + Resveratrol vs old; probe 1426585_s_at
Text: as §1, §2, §3

[4] = tested on: Mark2; assay: as above; details: Study 2, mouse heart tissue, old (30) + Resveratrol vs old; probe 1435889_at
Text: as §1, §2, §3

[5] = tested on: Rac1; assay: as above; details: Study 2, mouse heart tissue, old (30) + Resveratrol vs old; probe 1423734_at
Text: as §1, §2, §3

[6] = tested on: Dab2; assay: as above; details: Study 2, mouse heart tissue, old (30) + Resveratrol vs old; probe 1430604_a_at
Text: as §1, §2, §3

[7] = tested on: Ccnd1; assay: as above; details: Study 2, mouse heart tissue, old (30) + Resveratrol vs old; probe 1448698_at
Text: as §1, §2, §3

[8] = tested on: Magi3; assay: as above; details: Study 2, mouse heart tissue, old (30) + Resveratrol vs old; probe 1421035_a_at
Text: as §1, §2, §3

[9] = tested on: Senp2; assay: as above; details: Study 2, mouse heart tissue, old (30) + Resveratrol vs old; probe 1425465_a_at
Text: as §1, §2, §3

[10] = tested on: Pias4; assay: as above; details: Study 2, mouse heart tissue, old (30) + Resveratrol vs old; probe 1455394_at
Text: as §1, §2, §3

[11] = tested on: Smad3; assay: as above; details: Study 2, mouse heart tissue, old (30) + Resveratrol vs old; probe 1450471_at
Text: as §1, §2, §3

[12] = tested on: Camk2d; assay: as above; details: Study 2, mouse heart tissue, old (30) + Resveratrol vs old; probe 1427763_a_at
Text: as §1, §2, §3

[13] = tested on: Ctnnb1 (beta-catenin); assay: as above; details: Study 2, mouse heart tissue, old (30) + Resveratrol vs old; for Fold Change Resv vs. Old, Ctnnb1(1): Ctnnb1 probe 1
Text: as §1, §2
Genes in the Wnt pathway were further examined for their expressional changes. […] Those genes/proteins are listed in Table 2, along with respective representative GenBank Accession Numbers, and the Study 2 results are shown in Table 3. The expression of these genes was also examined in the calorie restricted (CR) group and resveratrol (“Resv”) group. […]

[14] = tested on: Wnt pathway genes; assay: Wnt pathway gene expression in aged heart, Study 2; details: Study 2, mouse aged heart; all but three of the genes of Table 2/3
Text: as §1, with “Mice were sacrificed at the ages of 5 months (young group) and 25 months (old group). Heart tissues were collected and subject to microarray gene expression assays (Study 3). In Study 2 and Study 3, Affymetrix mouse genome 430 2.0 gene chips were used. In Study 1, Affymetrix rat genome 230 2.0 gene chips were used. A description of the three studies is outlined in Table 1.” left out
To determine the impact of gene expression changes in the systems level, pathway analysis was conducted on the data sets from Study 2 and Study 3 using GenMAPP and MAPPFinder software (Salomonis, K Hanspers, A C Zambon, K Vranizan, S C Lawlor, K D Dahlquist, S W Doniger, J Stuart, B R Conklin, and A R Pico. GenMAPP 2: new features and resources for pathway analysis. BMC Bioinformatics, June 2007; 8: 217). […] The inventors determined that the Wnt signaling pathway was among those with most significant associations (adjusted p value of 0.011 in both the Study 2 and Study 3 data sets). […]

Oc1ccc(C=Cc2cc(O)cc(O)c2)cc1 [Resv, resveratrol] was tested, and the “Fold Change Resv vs. Old, Akt1” value [1] was −1.315 fold, the “Fold Change Resv vs. Old, Dlgh1” value [2] was 1.150 fold and the “Fold Change Resv vs. Old, Mapk1” value [3] was −1.020 fold. The “Fold Change Resv vs. Old, Mark2” value [4] was −2.113 fold, the “Fold Change Resv vs. Old, Rac1” value [5] was 1.509 fold and the “Fold Change Resv vs. Old, Dab2” value [6] was 1.227 fold. The “Fold Change Resv vs. Old, Ccnd1” value [7] was −1.158 fold, the “Fold Change Resv vs. Old, Magi3” value [8] was 1.244 fold and the “Fold Change Resv vs. Old, Senp2” value [9] was 1.261 fold. The “Fold Change Resv vs. Old, Pias4” value [10] was −1.495 fold, the “Fold Change Resv vs. Old, Smad3” value [11] was 1.285 fold and the “Fold Change Resv vs. Old, Camk2d” value [12] was 1.235 fold. For the same compound, the “Fold Change Resv vs. Old, Ctnnb1(1)” value [13] was 2.787 fold, the “Fold Change Resv vs. Old, Ctnnb1(1)” value ([13]; listed as Resveratrol) was 2.79 fold and the “Fold Change Resv vs. Old, Ctnnb1(2)” value ([13]; Ctnnb1 probe 2) was 2.017 fold. The “Expression of Wnt pathway genes decreased in aged heart, after treatment” value [14] was “elevated to their young levels”.
